Where a name gives a salt, the structure may show the parent alone.

This test deals with T1, recombinant human baculovirus-expressed GST-tagged FASN (Homo sapiens, UniProt P49327).
T1 construct: GST
T1 sequence (P49327 whole entry): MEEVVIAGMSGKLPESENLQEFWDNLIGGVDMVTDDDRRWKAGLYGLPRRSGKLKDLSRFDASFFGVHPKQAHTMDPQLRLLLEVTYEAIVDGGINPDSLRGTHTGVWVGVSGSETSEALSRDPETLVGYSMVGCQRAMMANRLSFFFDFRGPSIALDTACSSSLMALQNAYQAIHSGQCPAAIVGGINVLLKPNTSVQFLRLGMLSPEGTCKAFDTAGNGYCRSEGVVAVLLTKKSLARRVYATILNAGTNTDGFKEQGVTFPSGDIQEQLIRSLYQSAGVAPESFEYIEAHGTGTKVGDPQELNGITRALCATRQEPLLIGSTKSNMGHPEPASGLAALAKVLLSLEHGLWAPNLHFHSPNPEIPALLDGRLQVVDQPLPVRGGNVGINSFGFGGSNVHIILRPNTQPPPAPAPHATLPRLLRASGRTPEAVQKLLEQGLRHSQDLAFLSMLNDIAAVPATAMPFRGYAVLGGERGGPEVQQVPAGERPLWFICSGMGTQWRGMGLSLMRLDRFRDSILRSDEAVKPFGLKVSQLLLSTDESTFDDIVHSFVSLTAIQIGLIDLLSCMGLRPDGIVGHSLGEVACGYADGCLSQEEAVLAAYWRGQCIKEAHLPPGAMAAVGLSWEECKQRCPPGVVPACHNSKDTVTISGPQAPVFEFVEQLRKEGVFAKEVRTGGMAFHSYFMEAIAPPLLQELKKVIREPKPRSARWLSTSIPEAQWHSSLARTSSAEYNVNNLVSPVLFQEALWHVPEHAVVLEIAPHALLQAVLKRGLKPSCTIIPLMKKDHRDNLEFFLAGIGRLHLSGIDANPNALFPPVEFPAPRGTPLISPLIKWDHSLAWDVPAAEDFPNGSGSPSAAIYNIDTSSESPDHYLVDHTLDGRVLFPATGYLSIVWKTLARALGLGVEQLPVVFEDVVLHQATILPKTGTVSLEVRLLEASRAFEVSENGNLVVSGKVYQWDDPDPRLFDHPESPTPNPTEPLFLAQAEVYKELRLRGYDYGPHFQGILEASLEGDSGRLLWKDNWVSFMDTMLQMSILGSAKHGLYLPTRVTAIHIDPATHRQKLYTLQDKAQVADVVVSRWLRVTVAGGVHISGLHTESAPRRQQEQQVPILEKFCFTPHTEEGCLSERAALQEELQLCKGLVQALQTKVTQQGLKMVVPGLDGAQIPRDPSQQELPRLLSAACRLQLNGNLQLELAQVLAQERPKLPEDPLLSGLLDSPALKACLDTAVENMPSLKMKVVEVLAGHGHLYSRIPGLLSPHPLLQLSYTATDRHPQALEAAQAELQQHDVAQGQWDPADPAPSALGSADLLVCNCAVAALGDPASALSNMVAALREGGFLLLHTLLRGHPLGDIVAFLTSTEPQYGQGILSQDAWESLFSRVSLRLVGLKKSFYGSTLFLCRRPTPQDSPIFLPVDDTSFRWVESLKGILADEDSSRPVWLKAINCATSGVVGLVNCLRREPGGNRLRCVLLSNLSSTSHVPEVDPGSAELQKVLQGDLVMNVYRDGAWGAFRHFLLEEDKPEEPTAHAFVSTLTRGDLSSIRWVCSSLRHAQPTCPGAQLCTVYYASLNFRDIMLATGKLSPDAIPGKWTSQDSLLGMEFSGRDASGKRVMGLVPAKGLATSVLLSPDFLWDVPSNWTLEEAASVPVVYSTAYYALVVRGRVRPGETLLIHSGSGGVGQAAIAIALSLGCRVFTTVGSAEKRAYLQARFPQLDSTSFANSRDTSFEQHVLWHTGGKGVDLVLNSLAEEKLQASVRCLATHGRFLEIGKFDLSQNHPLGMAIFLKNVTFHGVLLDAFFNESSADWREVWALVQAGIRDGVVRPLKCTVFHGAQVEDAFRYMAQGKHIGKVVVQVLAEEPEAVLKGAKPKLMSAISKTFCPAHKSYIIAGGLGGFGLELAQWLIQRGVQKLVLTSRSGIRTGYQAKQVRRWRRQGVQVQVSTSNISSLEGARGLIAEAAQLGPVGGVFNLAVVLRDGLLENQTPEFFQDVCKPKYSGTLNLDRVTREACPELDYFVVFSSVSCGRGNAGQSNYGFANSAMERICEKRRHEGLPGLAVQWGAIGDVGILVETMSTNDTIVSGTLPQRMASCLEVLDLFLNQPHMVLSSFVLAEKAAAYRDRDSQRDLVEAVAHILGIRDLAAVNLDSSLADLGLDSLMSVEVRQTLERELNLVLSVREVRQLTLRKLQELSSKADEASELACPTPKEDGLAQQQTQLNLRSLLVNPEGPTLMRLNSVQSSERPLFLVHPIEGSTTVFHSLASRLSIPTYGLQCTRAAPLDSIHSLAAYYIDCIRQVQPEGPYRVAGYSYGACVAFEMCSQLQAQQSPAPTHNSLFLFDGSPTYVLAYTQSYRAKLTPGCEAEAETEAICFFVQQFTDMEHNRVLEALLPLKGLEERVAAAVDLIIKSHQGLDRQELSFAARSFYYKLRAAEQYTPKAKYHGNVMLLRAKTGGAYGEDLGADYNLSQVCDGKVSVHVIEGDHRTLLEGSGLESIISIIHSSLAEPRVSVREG
As to the kind of experiment: FASN enzyme activity assay, fluorescence-based detection of CoA with CPM. The format is biochemical. As to conditions: 5 nM FASN, 150 μM NADPH, 10 μM acetyl-CoA, 25 μM malonyl-CoA, 90 minutes incubation; read-out: IC50 data for Compounds of Formulae I-V/V(a): Activity. The procedure, abridged:
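CoA product reacted with thiol-reactive CPM (diluted to 50 μM in 70% ethanol), read at 390/530 nm after 30 min. Preceding reaction: 90 min, 5 nM recombinant GST-FASN, 150 μM NADPH, 10 μM acetyl-CoA, 25 μM malonyl-CoA, pH 7.5 HEPES, 0.5% DMSO. IC50s fitted by nonlinear sigmoidal regression.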
In the case of `O=C(C1OCCO1)N1CCC(Oc2ccc(-c3cnc4ccccc4c3)cc2)CC1` [Example 152, HCl], the IC50 is 1 to 99 nM.

As to `O=CN1CCC(Oc2ccc(-c3cnc4ccccc4c3)cc2)CC1` [Example 153, 4-(4-Quinolin-3-yl-phenoxy)-piperidine-1-carbaldehyde, HCl], the IC50 lay in the range of 1000 to 10000 nM.

For the molecule `C[C@@H]1C[C@H](C(=O)N2CCC(Oc3ccc(-c4cnc5ccccc5c4)cc3)CC2)O[C@@H]1C` [Example 156, ((2R,4R,5R)/(2S,4S,5 S)-4,5-Dimethyl-tetrahydrofuran-2-yl)-[4-(4-quinolin-3-yl-phenoxy)-piperidin-1-yl]-methanone, HCL], the IC50 lay in the range of 100 to 999 nM.

For the molecule `CCC(=O)N1CCC(N(C)C(=O)c2ccc(-c3ccc4cnccc4c3)cc2F)CC1` [Example 158, 2-Fluoro-4-isoquinolin-6-yl-N-methyl-N-(1-propionyl-piperidin-4-yl)-benzamide], the IC50 was 1000 to 10000 nM.

As for `CCC(=O)N1CCC(Oc2ccc(-c3ccc4nnc(C(F)(F)F)n4c3)cc2)CC1` [Example 159, 1-{4-[4-(3-Trifluoromethyl-1,2,4-triazolo[4,3-a]pyridin-6-yl)-phenoxy]-piperidin-1-yl}-propan-1-one, HCl], the IC50 was 1000 to 10000 nM.

For the molecule `O=C(C1CC1)N1CCC(Oc2ccc(-c3ccc4nnc(C(F)(F)F)n4c3)cc2)CC1` [Example 160, Cyclopropyl-{4-[4-(3-trifluoromethyl-1,2,4-triazolo[4,3-a]pyridin-6-yl)-phenoxy]-piperidin-1-yl}-methanone, HCl], the IC50 is 1000 to 10000 nM.

Regarding `O=C([C@H]1CCCO1)N1CCC(Oc2ccc(-c3ccc4nnc(C(F)(F)F)n4c3)cc2)CC1` [Example 161, (R)-Tetrahydrofuran-2-yl-{4-[4-(3-trifluoromethyl-1,2,4-triazolo[4,3-a]pyridin-6-yl)-phenoxy]-piperidin-1-yl}-methanone], the IC50 fell in the range of 1000 to 10000 nM.

With `CS(=O)(=O)N1CCC(Oc2ccc(-c3cnc4ccccc4c3)cc2)CC1` [Example 162, 3-[4-(1-Methanesulfonyl-piperidin-4-yloxy)-phenyl]-quinoline], the IC50 is 1000 to 10000 nM.

For the molecule `O=C(C1CC(F)(F)CO1)N1CCC(Oc2ccc(-c3cnc4ccccc4c3)cc2)CC1` (stereo not drawn) [Example 163, (4,4-Difluorotetrahydrofuran-2-yl)-[4-(4-quinolin-3-yl-phenoxy)-piperidin-1-yl]-methanone, HCl], the IC50 lay within 100 to 999 nM.

In the case of `Cc1c(-c2ccc(OC3CCN(C(=O)C4CC(F)(F)CO4)CC3)cc2)ccc2cccnc12` (stereo not drawn) [Example 164], the IC50 was 100 to 999 nM.

As for `Cc1nccc2cc(-c3ccc(OC4CCN(C(=O)C5CC(F)(F)CO5)CC4)cc3)ccc12` (stereo not drawn) [Example 165], the IC50 lay within 100 to 999 nM.

Consider `O=C1COC(C(=O)N2CCC(Oc3ccc(-c4cnc5ccccc5c4)cc3)CC2)C1` (stereo not drawn) [Example 166, 5-[4-(4-Quinolin-3-yl-phenoxy)-piperidine-1-carbonyl]dihydrofuran-3-one], for which the IC50 was 1000 to 10000 nM.

Consider `CCOc1c(-c2ccc(OC3CCN(C(=O)CC)CC3)cc2)ccc2cccnc12` [Example 167, 1-{4-[4-(8-Ethoxyquinolin-7-yl)-phenoxy]-piperidin-1-yl}-propan-1-one, HCl], for which the IC50 was in the range of 1 to 99 nM.

On to `CCOc1c(-c2ccc(OC3CCN(C(=O)C4CC4)CC3)cc2)ccc2cccnc12` [Example 168, Cyclopropyl-{4-[4-(8-ethoxyquinolin-7-yl)-phenoxy]-piperidin-1-yl}-methanone, HCl], for which the IC50 fell in the range of 100 to 999 nM.

On to `CCC(=O)N1CCC(Oc2ccc(-c3ccc4cccnc4c3OC(C)C)cc2)CC1` [Example 169, 1-{4-[4-(8-Isopropoxyquinolin-7-yl)-phenoxy]-piperidin-1-yl}-propan-1-one, HCl], for which the IC50 was in the range of 100 to 999 nM.

Take `CC(C)Oc1c(-c2ccc(OC3CCN(C(=O)C4CC4)CC3)cc2)ccc2cccnc12` [Example 170, Cyclopropyl-{4-[4-(8-isopropoxyquinolin-7-yl)-phenoxy]-piperidin-1-yl}-methanone, HCl]: the IC50 fell in the range of 100 to 999 nM.

Take `CCC(=O)N1CCC(Oc2ccc(-c3ccc4cccnc4c3OCCN3CCOCC3)cc2)CC1` [Example 171, 1-(4-{4-[8-(2-Morpholin-4-yl-ethoxy)-quinolin-7-yl]-phenoxy}-piperidin-1-yl)-propan-1-one, 2HCl]: the IC50 lay in the range of 1000 to 10000 nM.

Regarding `O=C(C1CC1)N1CCC(Oc2ccc(-c3ccc4cccnc4c3OCCN3CCOCC3)cc2)CC1` [Example 172, Cyclopropyl-(4-{4-[8-(2-morpholin-4-yl-ethoxy)-quinolin-7-yl]-phenoxyl}-piperidin-1-yl)-methanone, 2HCl], the IC50 lay within 1000 to 10000 nM.

With `CCC(=O)N1CCC(Oc2ccc(-c3ccc4cccnc4c3OCCN3CCCC3)cc2)CC1` [Example 173, 1-(4-{4-[8-(2-Pyrrolidin-1-yl-ethoxy)-quinolin-7-yl]-phenoxy}-piperidin-1-yl)-propan-1-one, HCl], the IC50 was in the range of 1000 to 10000 nM.

On to `O=C(C1CC1)N1CCC(Oc2ccc(-c3ccc4cccnc4c3OCCN3CCCC3)cc2)CC1` [Example 174, Cyclopropyl-(4-{4-[8-(2-pyrrolidin-1-yl-ethoxy)-quinolin-7-yl]-phenoxy}-piperidin-1-yl)-methanone, HCl], for which the IC50 fell in the range of 1000 to 10000 nM.

As for `CCC(=O)N1CCC(Oc2ccc(-c3ccc4cccnc4c3OCCCN3CCCC3)cc2)CC1` [Example 175, 1-(4-{4-[8-(3-Pyrrolidin-1-yl-propoxy)-quinolin-7-yl]-phenoxy}-piperidin-1-yl)-propan-1-one, HCl], the IC50 was 1000 to 10000 nM.

For the molecule `O=C(C1CC1)N1CCC(Oc2ccc(-c3ccc4cccnc4c3OCCCN3CCCC3)cc2)CC1` [Example 176, Cyclopropyl-(4-{4-[8-(3-pyrrolidin-1-yl-propoxy)-quinolin-7-yl]-phenoxy}-piperidin-1-yl)-methanone, HCl], the IC50 was in the range of 1000 to 10000 nM.

Consider `CCC(=O)N1CCC(Oc2ccc(-c3ccc4cccnc4c3OCCN3CCN(C)CC3)cc2)CC1` [Example 177, 1-[4-[4-[8-[2-(4-Methylpiperazin-1-yl)ethoxy]-7-quinolyl]phenoxy]-1-piperidyl]propan-1-one, HCl], for which the IC50 was in the range of 1000 to 10000 nM.

With `CCC(=O)N1CCC(Oc2ccc(-c3ccc4cccnc4c3OCCOC)cc2)CC1` [Example 178, 1-[4-[4-[8-(2-Methoxyethoxy)-7-quinolyl]phenoxy]-1-piperidyl]propan-1-one, HCl], the IC50 lay within 100 to 999 nM.

With `CCC(=O)N1CCC(Oc2ccc(-c3ccc4cccnc4c3OCCCOC)cc2)CC1` [Example 179, 1-[4-[4-[8-(3-Methoxypropoxy)-7-quinolyl]phenoxy]-1-piperidyl]propan-1-one, HCl], the IC50 is 100 to 999 nM.

Turning to `CC(C)Oc1c(-c2ccc(OC3CCN(C(=O)[C@H]4CCCO4)CC3)cc2)ccc2cccnc12` [Example 180, {4-[4-(8-Isopropoxyquinolin-7-yl)-phenoxy]-piperidin-1-yl}-(R)-tetrahydrofuran-2-yl-methanone, HCl], the IC50 lay within 1 to 99 nM.

Take `CCOc1c(-c2ccc(OC3CCN(C(=O)[C@H]4CCCO4)CC3)cc2)ccc2cccnc12` [Example 181, {4-[4-(8-Ethoxyquinolin-7-yl)-phenoxy]-piperidin-1-yl}-(R)-tetrahydro-furan-2-yl-methanone, HCl]: the IC50 lay in the range of 1 to 99 nM.

Take `O=C([C@H]1CCCO1)N1CCC(Oc2ccc(-c3ccc4cccnc4c3OCCN3CCOCC3)cc2)CC1` [Example 182, (4-{4-[8-(2-Morpholin-4-yl-ethoxy)-quinolin-7-yl]-phenoxy}-piperidin-1-yl)-(R)-tetrahydrofuran-2-yl-methanone, 2HCl]: the IC50 fell in the range of 100 to 999 nM.

Regarding `O=C([C@H]1CCCO1)N1CCC(Oc2ccc(-c3ccc4cccnc4c3OCCN3CCCC3)cc2)CC1` [Example 183], the IC50 is 1000 to 10000 nM.

Regarding `O=C([C@H]1CCCO1)N1CCC(Oc2ccc(-c3ccc4cccnc4c3OCCCN3CCCC3)cc2)CC1` [Example 184, (4-{4-[8-(3-Pyrrolidin-1-yl-propoxy)-quinolin-7-yl]-phenoxy}-piperidin-1-yl)-(R)-tetrahydrofuran-2-yl-methanone, HCl], the IC50 was 100 to 999 nM.

On to `CN1CCN(CCOc2c(-c3ccc(OC4CCN(C(=O)[C@H]5CCCO5)CC4)cc3)ccc3cccnc23)CC1` [Example 185, [4-[4-[8-[2-(4-Methylpiperazin-1-yl)ethoxy]-7-quinolyl]phenoxy]-1-piperidyl]-[(2R)-tetrahydrofuran-2-yl]methanone, HCl], for which the IC50 lay in the range of 100 to 999 nM.

Consider `COCCOc1c(-c2ccc(OC3CCN(C(=O)[C@H]4CCCO4)CC3)cc2)ccc2cccnc12` [Example 186, [4-[4-[8-(2-Methoxyethoxy)-7-quinolyl]phenoxy]-1-piperidyl]-[(2R)-tetrahydrofuran-2-yl]methanone, HCl], for which the IC50 lay in the range of 1 to 99 nM.

Take `COCCCOc1c(-c2ccc(OC3CCN(C(=O)[C@H]4CCCO4)CC3)cc2)ccc2cccnc12` [Example 187, [4-[4-[8-(3-Methoxypropoxy)-7-quinolyl]phenoxy]-1-piperidyl]-[(2R)-tetrahydrofuran-2-yl]methanone, HCl]: the IC50 lay within 1 to 99 nM.

Turning to `CCC(=O)N1CCC(Oc2ccc(-c3ccc4cccnc4c3O)cc2)CC1` [Example 188, 1-{4-[4-(8-Hydroxyquinolin-7-yl)-phenoxy]-piperidin-1-yl}-propan-1-one, HCl], the IC50 fell in the range of 100 to 999 nM.

On to `O=C(C1CC1)N1CCC(Oc2ccc(-c3ccc4cccnc4c3O)cc2)CC1` [Example 189, Cyclopropyl-{4-[4-(8-hydroxyquinolin-7-yl)-phenoxy]-piperidin-1-yl}-methanone, HCl], for which the IC50 lay in the range of 100 to 999 nM.

`O=C([C@H]1CCCO1)N1CCC(Oc2ccc(-c3ccc4cccnc4c3O)cc2)CC1` [Example 190, {4-[4-(8-Hydroxyquinolin-7-yl)-phenoxy]-piperidin-1-yl}-(R)-tetrahydro-furan-2-yl-methanone, HCl]: the IC50 lay in the range of 1 to 99 nM.

These data come from US9902696B2, “1,4-substituted piperidine derivatives” (Cephalon, Inc., priority 2015, dated 2018).
